We go through four compounds from patent publication US20260297542A1, “HERBICIDE RESISTANT PLANTS” (SYNGENTA CROP PROTECTION AG, priority 2023, published 2026).

Several values for one entry are separate records, joined by “and”; a condition that tells them apart may be missing. Equal entries are not always repeated.

The target in assay [1] is T1, AtPPO1 Y426L (Arabidopsis thaliana, UniProt P55826, Y426L).
T1 construct: expressed in transfected cells; host or cells: E. coli BL21(DE3) hemG (pET24a, T7 promoter)
T1 sequence (P55826 35-537 Y426L): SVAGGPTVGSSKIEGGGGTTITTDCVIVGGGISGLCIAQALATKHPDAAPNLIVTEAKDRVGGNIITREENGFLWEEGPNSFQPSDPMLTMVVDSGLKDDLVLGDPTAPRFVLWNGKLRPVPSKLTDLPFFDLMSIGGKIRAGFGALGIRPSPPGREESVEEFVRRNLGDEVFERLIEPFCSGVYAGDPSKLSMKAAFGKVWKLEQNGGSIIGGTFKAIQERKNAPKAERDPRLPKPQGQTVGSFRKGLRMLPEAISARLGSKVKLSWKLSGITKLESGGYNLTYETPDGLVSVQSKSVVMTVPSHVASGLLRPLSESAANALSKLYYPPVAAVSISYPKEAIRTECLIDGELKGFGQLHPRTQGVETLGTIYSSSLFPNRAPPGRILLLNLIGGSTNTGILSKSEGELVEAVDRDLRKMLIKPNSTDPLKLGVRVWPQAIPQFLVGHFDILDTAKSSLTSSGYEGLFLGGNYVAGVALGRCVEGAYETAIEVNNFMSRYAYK
As to the kind of experiment: E. coli hemG growth inhibition by herbicide, AtPPO1 variant. Format: cell-based. Particulars: read-out: percentage growth inhibition. The essentials: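 Variant plasmids were transformed into hemG-null BL21(DE3) and precultured 24 h with hematin. Washed cells were diluted 1:100 into Terrific broth containing 0.1 mM IPTG and herbicide (6.25 ppm 0 or E; 0.78 ppm B) or DMSO. After 24 h at 37° C, OD600 gave percent inhibition.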

Assay [2] has as its system Wildtype Samsun tobacco. As to the kind of experiment: herbicide damage to wild-type tobacco. Format: in vivo. The note with it: 120 g ai/ha, 0 no visible damage, 100 complete death. The source says:
Herbicidal damage is visually assessed across the population and a herbicide damage score given at 7 and 14 days. A score of 0 indicates no visible damage or stunting whereas a score of 100 indicates a complete death of the plant. 20 transgenic events (i.e. individual transgenic plants) from each GM tobacco line are transplanted to soil 1 week prior to spraying with PPO inhibiting compounds. WT tobacco is included as a control.
Herbicidal damage was visually assessed across the population and a herbicide damage score given at 7 and 14 days. A score of 0 indicates no visible damage or stunting whereas a score of 100 indicates a complete death of the plant. 20 transgenic events (i.e. individual transgenic plants) from each GM tobacco line were transplanted to soil 1 week prior to spraying with PPO inhibiting compounds. WT tobacco is included as a control.
The wild-type Samsun plants show significant damage at the day 7 and 14 assessment time.

What is called inhibition is the relative decrease from the control value, in per cent. On to `C#CCN1C(=O)C(F)(F)Oc2cc(F)c(-n3c(=O)n(C)c(=S)n(C)c3=O)cc21` [Herbicide B, trifludimoxazin], for which, in assay [1], the inhibition at 0.78 ppm amounted to 15%. Further, the percentage of damage in assay [2] (7 DAT) and in assay [2] (14 DAT) was 100% each time.

On to `CCOC(=O)C1(C)CC(c2cc(-n3c(=O)cc(C(F)(F)F)n(C)c3=O)c(F)cc2Cl)=NO1` (stereo not drawn) [Herbicide C, 3-(2-chloro-4-fluoro-5-(3-methyl-2,6-dioxo-4-trifluoromethyl-3,6-dihydropyrimidin-1(2H)-yl)phenyl)-5-methyl-4,5-dihydroisoxazole-5-carboxylic acid ethyl ester], for which the percentage of damage in assay [2] (7 DAT) and in assay [2] (14 DAT) was 100% in each case.

For the compound `CCOC(=O)[C@]1(C)CC(c2cc(-n3c(=O)n(C)c(=S)n(C)c3=O)c(F)cc2Cl)=NO1` [Herbicide D, ethyl (5S)-3-[2-chloro-5-(3,5-dimethyl-2,6-dioxo-4-thioxo-1,3,5-triazinan-1-yl)-4-fluoro-phenyl]-5-methyl-4H-isoxazole-5-carboxylate], the inhibition at 6.25 ppm in assay [1] turned out to be 25%. The percentage of damage in assay [2] (7 DAT) was 98% and 100%; in assay [2] (14 DAT) it was 100%.

Turning to `CC(C)N(C)S(=O)(=O)NC(=O)c1cc(-n2c(=O)cc(C(F)(F)F)n(C)c2=O)c(F)cc1Cl` [Herbicide E, saflufenacil], in assay [1], the inhibition at 6.25 ppm was determined as 12%.
